# Results taken from patent US20230141034A1, “ADAMANTANE-1-CARBONYL THIOUREA, AS P2X RECEPTOR ANTAGONIST” (COMSATS UNIVERSITY ISLAMABAD, priority 2021, published 2023).
# Where two headings read alike, the source gives them in different places.
# Experiments:
# [1] = MTT cytotoxicity assay, human 1321N1 astrocytoma cell line; format: cell-based; details: human, 1321N1 astrocytoma cells, final concentration of 50 μM
# Protocol: (§1) Cellular safety profiling of adamantane thioureas were done through MTT assay. All compounds were analyzed for toxicity at final concentration of 50 μM. […] Toxicity was determined against two cancer cell lines including human 1321N1 Astrocytoma cell line, HeLa cell line and a normal HEK-293 cell line.
# (§2) c. Cell Viability Assay (MTT Assay)
# (§3) After 24 h of incubation at 37° C. in CO2 incubator, culture media will be replaced with serum-free media along with test compounds and re-incubate. After 24 h, media will be removed and add 100 μL of MTT reagent (0.5-5 mg/mL) and will be incubated for a further 4 h, at 37° C. Absorbance will be measured at 570 and 630 nm to calculate cell viability.
# [2] = MTT cytotoxicity assay, HEK-293 cell line; format: cell-based; details: human, HEK-293 cells, final concentration of 50 μM
# Protocol: as §1, §2, §3
# [3] = MTT cytotoxicity assay, HeLa cell line; format: cell-based; details: human, HeLa cells, final concentration of 50 μM
# Protocol: as §1, §2, §3
# h-P2X2 = molecular target: T1, h-P2X2 (Homo sapiens, UniProt Q9UBL9); test: Ca2+ flux assay h-P2X2; details: for IC50: read-out: h-P2X2 IC50 ± SEM, Ca2+ flux, n = 3; for inhibition at 50 µM: read-out: h-P2X2 % Inhibition
# T1 sequence (Q9UBL9 1-471): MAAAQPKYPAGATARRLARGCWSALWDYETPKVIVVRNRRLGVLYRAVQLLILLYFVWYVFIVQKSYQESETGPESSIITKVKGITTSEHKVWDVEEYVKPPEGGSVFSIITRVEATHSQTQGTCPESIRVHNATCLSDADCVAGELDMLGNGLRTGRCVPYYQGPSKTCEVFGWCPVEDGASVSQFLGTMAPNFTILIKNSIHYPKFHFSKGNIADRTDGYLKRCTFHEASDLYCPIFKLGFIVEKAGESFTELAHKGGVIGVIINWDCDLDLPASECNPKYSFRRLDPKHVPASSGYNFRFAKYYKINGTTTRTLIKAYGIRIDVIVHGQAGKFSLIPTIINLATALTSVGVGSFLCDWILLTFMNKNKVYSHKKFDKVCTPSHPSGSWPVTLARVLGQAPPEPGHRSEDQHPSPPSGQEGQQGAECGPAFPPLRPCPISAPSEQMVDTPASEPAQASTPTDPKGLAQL
# Protocol: (§4) Compounds were initially analyzed at a final concentration of about 50 μM and percentage of inhibition was calculated.
# (§5) Calcium Mobilization Assay to Measure P2X Receptors Response Cell Culture: P2X receptors functions can be analyzed from ATP-induced increase in cytosolic Ca^2+ concentration. Two Ca^2+ chelating dyes, Fura-2 AM and Fluo-4 AM can be used to determine the intracellular Ca^2+ concentration through a fluorescent imaging micro-titer plate reader (BMG Labtech: FLUOstar Galaxy®). Non-transfected human 1321N1 astrocytoma cells, as well as P2X receptors transfected human 1321N1 astrocytoma cells will be cultured in T-75 cm^2 cell culture flask having appropriate cell culture growth media; Dulbecco's Modified Eagle's medium (DMEM) supplemented with 10% fetal bovine serum (FBS), 75 μg/mL of Hygromycin B or human P2X receptors transfected cell lines and 1% pen-strep (antibiotics). Cells will be incubated at 37° C. in 5% CO2 incubator until 80 to 90% cell confluency will be achieved. Cells will be maintained in an exponential growth phase throughout the experiment and closely monitored for contamination.
# Measurement of Ca^2+ Flux
# (§6) When 1321N1 cells will reach 80 to 90% of confluency, cells will be harvested from T-75 cm^2 flask by trypsinization. After washing the cells with phosphate buffer saline (PBS), cells will be seeded at a density of 20,000 cells/well in black, clear bottom, poly-D-lysine coated 96 well plate. After 16 to 24 h, cell culture media will be removed and add Hank's balanced salt solution (HBSS) containing 3 μM Ca^2+ chelating dyes Fura-2 AM or Fluo-4 AM. After 1 h of incubation at 23° C., the loading dye solution will be removed, and added seven to eight dilutions of test compounds in triplicate format. ATP (at a concentration value of EC80) or buffer will be added and measured the excitation and emission at 340/520 nm and 380/520 nm through FLUOStar Galaxy®. Assay volume for the experiment will be 200 μL. IC50 and EC50 values will be calculated by PRISM 5.0 (GrapgPad, San Diego, Calif., USA) through non-linear regression analysis.
# h-P2X4 = molecular target: T2, h-P2X4 (Homo sapiens, UniProt Q99571); test: Ca2+ flux assay h-P2X4; details: for inhibition at 50 µM: read-out: h-P2X4 % Inhibition
# T2 sequence (Q99571 1-388): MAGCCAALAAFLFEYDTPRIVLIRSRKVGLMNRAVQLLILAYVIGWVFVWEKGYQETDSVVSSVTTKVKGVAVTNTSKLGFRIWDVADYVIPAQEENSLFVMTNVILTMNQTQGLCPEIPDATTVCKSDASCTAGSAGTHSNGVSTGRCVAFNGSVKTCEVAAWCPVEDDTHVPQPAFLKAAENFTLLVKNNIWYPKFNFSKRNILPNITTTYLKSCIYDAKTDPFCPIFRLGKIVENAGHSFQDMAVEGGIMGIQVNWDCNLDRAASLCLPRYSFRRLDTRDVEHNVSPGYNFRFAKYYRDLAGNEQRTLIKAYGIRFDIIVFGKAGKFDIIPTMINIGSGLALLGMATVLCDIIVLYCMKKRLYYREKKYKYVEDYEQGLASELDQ
# Protocol: as §4, §5
# Measurement of Ca^2+ Flux
# as §6
# h-P2X5 = h-P2X5 (Homo sapiens, UniProt Q93086); test: Ca2+ flux assay h-P2X5; details: for inhibition at 50 µM: read-out: h-P2X5 % Inhibition
# Protocol: as §4, §5
# Measurement of Ca^2+ Flux
# as §6
# h-P2X7 = molecular target: T3, h-P2X7 (Homo sapiens, UniProt Q99572); test: Ca2+ flux assay h-P2X7; details: for inhibition at 50 µM: read-out: h-P2X7 % Inhibition
# T3 sequence (Q99572 1-595): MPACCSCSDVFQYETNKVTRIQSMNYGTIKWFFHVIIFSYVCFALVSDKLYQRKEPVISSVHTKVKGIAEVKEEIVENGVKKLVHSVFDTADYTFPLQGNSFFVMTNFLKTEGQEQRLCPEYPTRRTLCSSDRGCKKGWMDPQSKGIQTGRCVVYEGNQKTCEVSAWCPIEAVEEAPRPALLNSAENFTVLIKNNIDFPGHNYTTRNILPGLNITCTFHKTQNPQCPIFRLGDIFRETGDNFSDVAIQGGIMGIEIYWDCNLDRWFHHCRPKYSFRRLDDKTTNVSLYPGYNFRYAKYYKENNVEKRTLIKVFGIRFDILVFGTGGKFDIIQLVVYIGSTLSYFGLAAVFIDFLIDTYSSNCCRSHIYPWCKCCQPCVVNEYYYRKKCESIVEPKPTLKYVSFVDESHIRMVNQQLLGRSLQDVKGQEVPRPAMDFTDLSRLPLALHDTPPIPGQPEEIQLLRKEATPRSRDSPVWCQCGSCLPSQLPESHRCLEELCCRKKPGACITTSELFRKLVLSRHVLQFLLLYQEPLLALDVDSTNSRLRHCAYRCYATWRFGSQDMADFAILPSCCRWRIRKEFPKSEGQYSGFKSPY
# Protocol: as §4, §5
# Measurement of Ca^2+ Flux
# as §6
# [4] = read-out: h-P2X4 IC50 ± SEM, Ca2+ flux, n = 3
# [5] = read-out: h-P2X7 IC50 ± SEM, Ca2+ flux, n = 3
# h-P2X5, sequence (Q93086 whole entry): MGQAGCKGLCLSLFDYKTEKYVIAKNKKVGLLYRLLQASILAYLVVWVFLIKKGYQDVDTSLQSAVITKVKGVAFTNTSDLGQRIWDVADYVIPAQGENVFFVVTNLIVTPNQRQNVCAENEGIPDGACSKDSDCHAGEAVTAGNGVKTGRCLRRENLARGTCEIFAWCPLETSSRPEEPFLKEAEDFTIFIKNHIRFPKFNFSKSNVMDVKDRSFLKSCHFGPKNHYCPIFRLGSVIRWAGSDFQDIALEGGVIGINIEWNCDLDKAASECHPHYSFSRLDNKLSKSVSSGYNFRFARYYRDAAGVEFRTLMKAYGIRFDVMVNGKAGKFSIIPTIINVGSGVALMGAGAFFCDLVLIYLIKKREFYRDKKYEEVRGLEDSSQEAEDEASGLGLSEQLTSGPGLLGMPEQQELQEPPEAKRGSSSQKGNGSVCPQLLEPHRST
SMILES,"cytotoxicity at 24 h, 50 µM [1]","cytotoxicity at 24 h, 50 µM [2]","cytotoxicity at 24 h, 50 µM [3]",IC50 (h-P2X2),IC50 (h-P2X4; [4]),"IC50 (h-P2X5; read-out: h-P2X5 IC50 ± SEM, Ca2+ flux, n = 3)",IC50 (h-P2X5),IC50 (h-P2X7; [5]),inhibition at 50 µM (h-P2X2),inhibition at 50 µM (h-P2X4),inhibition at 50 µM (h-P2X5),inhibition at 50 µM (h-P2X7),IC50 (h-P2X4),IC50 (h-P2X7)
"Cc1ccc(C(=O)Nc2ccc(S(=O)(=O)O)c3cc(S(=O)(=O)O)cc(S(=O)(=O)O)c23)cc1NC(=O)c1cccc(NC(=O)Nc2cccc(C(=O)Nc3cc(C(=O)Nc4ccc(S(=O)(=O)O)c5cc(S(=O)(=O)O)cc(S(=O)(=O)O)c45)ccc3C)c2)c1 [Suramin, reference compound]",18.6%,48%,21.7%,13.45 ± 0.11 µM,5.64 ± 0.04 µM,16.1 ± 0.5 µM,–,–,–,–,–,–,–,–
"O=C(NC(=S)Nc1cc(Cl)c(O)c(Cl)c1)C12CC3CC(CC(C3)C1)C2 [Id, N-((3,5-dichloro-4-hydroxyphenyl)carbamothioyl)adamantane-1-carboxamide]",6.18%,1.06%,5.4%,1.06 ± 0.05 µM,1.28 ± 0.11 µM,–,3.4 ± 0.4 µM,–,–,–,–,–,–,–
"Cc1ccc(NC(=S)NC(=O)C23CC4CC(CC(C4)C2)C3)c(Br)c1 [Im, N-((2-bromo-4-methylphenyl)carbamothioyl)adamantane-1-carboxamide]",7.29%,18.9%,15.4%,4.85 ± 0.32 µM,1.56 ± 0.21 µM,–,6.04 ± 1.2 µM,3.71 ± 0.78 µM,–,–,–,–,–,–
"Cc1cc(Br)ccc1NC(=S)NC(=O)C12CC3CC(CC(C3)C1)C2 [In, N-((4-bromo-2-methylphenyl)carbamothioyl)adamantane-1-carboxamide]",14.3%,14%,4.1%,–,–,–,–,–,22.7%,34.9%,27.1%,18.8%,–,–
"COc1cccc(NC(=S)NC(=O)C23CC4CC(CC(C4)C2)C3)c1 [Ii, N-((3-methoxyphenyl)carbamothioyl)adamantane-1-carboxamide]",6.53%,20.7%,18.1%,2.31 ± 0.31 µM,–,–,–,–,–,38%,44%,15.1%,–,–
"O=C(NC(=S)Nc1ccccc1O)C12CC3CC(CC(C3)C1)C2 [Ia, N-((2-hydroxyphenyl)carbamothioyl)adamantane-1-carboxamide]",10.3%,26.6%,13.1%,–,1.08 ± 0.02 µM,–,–,1.47 ± 0.09 µM,32.6%,–,40.6%,–,–,–
"O=C(NC(=S)Nc1cccc(O)c1)C12CC3CC(CC(C3)C1)C2 [Ib, N-((3-hydroxyphenyl)carbamothioyl)adamantane-1-carboxamide]",5.67%,6.95%,11%,–,–,–,–,–,32.6%,36.7%,43.6%,19.1%,–,–
"O=C(NC(=S)Nc1cc(Br)c(O)c(C(F)(F)F)c1)C12CC3CC(CC(C3)C1)C2 [Ie, N-((3-bromo-4-hydroxy-5-(trifluoromethyl)phenyl)carbamothioyl)adamantane-1-carboxamide]",5.37%,6.85%,11.9%,–,–,–,–,–,30.5%,–,20.4%,–,4.53 ± 0.39 µM,4.02 ± 0.64 µM
"O=C(NC(=S)Nc1ccc(Br)cc1)C12CC3CC(CC(C3)C1)C2 [Il, N-((4-bromophenyl)carbamothioyl)adamantane-1-carboxamide]",15.4%,18.7%,7.19%,–,–,–,–,8.8 ± 1.12 µM,36%,46.8%,47.7%,–,–,–
"O=C(NC(=S)Nc1cc([N+](=O)[O-])ccc1Cl)C12CC3CC(CC(C3)C1)C2 [Ih, N-((2-chloro-5-nitrophenyl)carbamothioyl)adamantane-1-carboxamide]",20.5%,24.6%,8.66%,4.58 ± 0.21 µM,1.29 ± 0.09 µM,–,–,2.53 ± 0.72 µM,–,–,32.1%,–,–,–
"NS(=O)(=O)c1cccc(NC(=S)NC(=O)C23CC4CC(CC(C4)C2)C3)c1 [Ig, N-((3-sulfamoylphenyl)carbamothioyl)adamantane-1-carboxamide]",12.9%,3.77%,12.5%,–,–,–,–,–,18.1%,–,42.5%,–,4.19 ± 0.23 µM,0.829 ± 0.12 µM
"COc1ccc(NC(=S)NC(=O)C23CC4CC(CC(C4)C2)C3)cc1 [Ij, N-((4-methoxyphenyl)carbamothioyl)adamantane-1-carboxamide]",4.56%,10.6%,8.01%,5.24 ± 0.32 µM,–,–,–,–,–,44.9%,44.5%,29.4%,–,–
"O=C(NC(=S)Nc1cc(Br)ccc1Br)C12CC3CC(CC(C3)C1)C2 [Iq, N-((2,5-dibromophenyl)carbamothioyl)adamantane-1-carboxamide]",21.2%,14.8%,20.7%,–,–,–,–,–,41.1%,–,16.2%,11.2%,5.73 ± 0.42 µM,–
"COc1ccc(NC(=S)NC(=O)C23CC4CC(CC(C4)C2)C3)cc1OC [Ik, N-((3,4-dimethoxyphenyl)carbamothioyl)adamantane-1-carboxamide]",19.4%,7.2%,14.3%,0.732 ± 0.01 µM,3.46 ± 0.4 µM,–,1.48 ± 0.23 µM,4.9 ± 1.04 µM,–,–,–,–,–,–
"CN(C)CCCNC(=S)NC(=O)C12CC3CC(CC(C3)C1)C2 [Ir, N-((3-(dimethylamino)propyl)carbamothioyl)adamantane-1-carboxamide]",10.1%,5.16%,8.14%,–,–,–,–,–,2.15%,0%,11.2%,5.01%,–,–
"O=C(NC(=S)Nc1ccc(O)cc1)C12CC3CC(CC(C3)C1)C2 [Ic, N-((4-hydroxyphenyl)carbamothioyl)adamantane-1-carboxamide]",19%,3.02%,8.66%,–,–,–,–,1.4 ± 0.18 µM,37.9%,32.4%,33.2%,–,–,–
